Columns and labels:
Format in all cases: in vivo
[1] = test system: winter barley (Hordeum vulgare); test: Test B postemergence plant response
In short: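 Plants grown in peat/vermiculite medium were sprayed postemergence at 2–18 cm height (1- to 4-leaf stage). After 13–15 days in the greenhouse, response was rated visually against untreated controls on a 0–100 scale (0 no effect, 100 complete control).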

[2] = test system: velvetleaf (Abutilon theophrasti); test: Test A pre-/postemergence plant response
In short: (§1)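 Both pre- and postemergence treatments are applied simultaneously, using chemicals formulated in a non-phytotoxic solvent mixture with surfactant. Postemergence plants are 2–10 cm high with one to two leaves. After approximately ten days in a greenhouse, injury is scored visually from 0 (none) to 100 (complete control) relative to untreated plants.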

[3] = test system: wheat (Triticum aestivum); test: Test A pre-/postemergence plant response
In short: as §1

[4] = test system: barnyardgrass (Echinochloa crus-galli); test: Test A pre-/postemergence plant response
In short: as §1

corn (Zea mays) = test: Test A pre-/postemergence plant response
In short: as §1

[5] = test system: large crabgrass (Digitaria sanguinalis); test: Test A pre-/postemergence plant response
In short: as §1

[6] = test system: pigweed (Amaranthus retroflexus); test: Test A pre-/postemergence plant response
In short: as §1

[7] = test system: morningglory (Ipomoea spp.); test: Test A pre-/postemergence plant response
In short: as §1

[8] = test system: giant foxtail (Setaria faberii); test: Test A pre-/postemergence plant response
In short: as §1

[9] = test system: ducksalad (Heteranthera limosa); test: Test B flooded paddy test; conditions: for Plant response rating, Flood, Ducksalad: 250 g ai/ha, flooded paddy test, visual rating on 0 to 100 scale (0 no effect, 100 complete control) after 13 to 15 days; for Plant response rating, Ducksalad: Flood (flooded paddy test), 13 to 15 days
In short: (§2)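 Flooded-pot test: water raised to 3 cm above soil when treating, compound put in the water, level unchanged thereafter. Plants were at 2 leaves. Readout after 13 to 15 days, visual, relative to controls; 0 signifies no effect and 100 complete control.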

[10] = test system: umbrella sedge (Cyperus difformis); test: Test B flooded paddy test; conditions: for Plant response rating, Flood, Sedge, Umbrella: 250 g ai/ha, flooded paddy test, visual rating on 0 to 100 scale (0 no effect, 100 complete control) after 13 to 15 days; for Plant response rating, Sedge, Umbrella: Flood (flooded paddy test), 13 to 15 days
In short: as §2

[11] = test system: barnyardgrass (Echinochloa crus-galli); test: Test B flooded paddy test; conditions: for Plant response rating, Flood, Barnyardgrass: 250 g ai/ha, flooded paddy test, visual rating on 0 to 100 scale (0 no effect, 100 complete control) after 13 to 15 days; for Plant response rating, Barnyardgrass: Flood (flooded paddy test), 13 to 15 days
In short: as §2

rice (Oryza sativa) = test: Test B flooded paddy test; conditions: for Plant response rating, Flood, Rice: 250 g ai/ha, flooded paddy test, visual rating on 0 to 100 scale (0 no effect, 100 complete control) after 13 to 15 days; for Plant response rating, Rice: Flood (flooded paddy test), 13 to 15 days
In short: as §2

[12] = Postemergence, 31 g ai/ha, 0 to 100 scale (0 no effect, 100 complete control)
[13] = Postemergence, 125 g ai/ha, scale 0 to 100 (0 no effect, 100 complete control)
[14] = Postemergence, 125 g ai/ha, 0 to 100 scale where 0 is no effect and 100 is complete control
[15] = Postemergence, 500 g ai/ha, visual injury, 0 to 100 scale (0 no effect, 100 complete control), approx. ten days
[16] = Preemergence, 125 g ai/ha, 0 to 100 scale, 0 = no effect, 100 = complete control
[17] = Preemergence, 500 g ai/ha, 0 to 100 scale, 0 = no effect, 100 = complete control
[18] = 62 g ai/ha, scale of 0 to 100 where 0 is no effect and 100 is complete control
[19] = 125 g ai/ha, scale 0 to 100, 0 is no effect, 100 is complete control
[20] = Flood, 31 g ai/ha, scale 0 to 100 (0 no effect, 100 complete control)
[21] = Postemergence, 500 g ai/ha, 0 to 100 scale, 0 = no effect, 100 = complete control, approx. ten days
[22] = Preemergence, 500 g ai/ha, visual injury, 0 to 100 scale (0 no effect, 100 complete control), approx. ten days
[23] = Postemergence, 125 g ai/ha, visual injury, 0 to 100 scale (0 no effect, 100 complete control), approx. ten days
[24] = 31 g ai/ha, scale of 0 to 100 where 0 is no effect and 100 is complete control
[25] = 62 g ai/ha, scale 0 to 100, 0 is no effect, 100 is complete control

## Cc1cc(-n2c(-c3cccc(F)c3)ncc(C(=O)C3=C(O)CCCC3=O)c2=O)ccc1F [Compound 191]
[1]; [12]
  Plant response rating, Barley: 5
[1]; Postemergence, 62 g ai/ha, scale 0 to 100 (0 no effect, 100 complete control)
  Plant response rating, Barley: 50
[1]; [13]
  Plant response rating, Barley: 50
[1]; Postemergence, 250 g ai/ha, scale 0 to 100 (0 no effect, 100 complete control), 13 to 15 days
  Plant response rating, Barley: 70
[2]; [14]
  Plant response rating, Velvetleaf: 100
[2]; [15]
  Velvetleaf plant response rating: 100
[2]; [16]
  Plant response rating, Velvetleaf: 60
[2]; [17]
  Plant response rating, Velvetleaf: 100
[3]; [14]
  Plant response rating, Wheat: 0
[3]; [15]
  Wheat plant response rating: 50
[3]; [16]
  Plant response rating, Wheat: 0
[3]; [17]
  Plant response rating, Wheat: 20
[4]; [14]
  Plant response rating, Barnyardgrass: 90
[4]; [15]
  Barnyardgrass plant response rating: 100
[4]; [16]
  Plant response rating, Barnyardgrass: 10
[4]; [17]
  Plant response rating, Barnyardgrass: 80
Corn (Zea mays); [14]
  Plant response rating, Corn: 0
Corn (Zea mays); [15]
  Corn plant response rating: 50
Corn (Zea mays); [16]
  Plant response rating, Corn: 0
Corn (Zea mays); [17]
  Plant response rating, Corn: 30
[5]; [14]
  Plant response rating, Crabgrass, Large: 70
[5]; [15]
  Crabgrass, Large plant response rating: 100
[5]; [16]
  Plant response rating, Crabgrass, Large: 50
[5]; [17]
  Plant response rating, Crabgrass, Large: 100
[6]; [14]
  Plant response rating, Pigweed: 80
[6]; [15]
  Pigweed plant response rating: 90
[6]; [16]
  Plant response rating, Pigweed: 80
[6]; [17]
  Plant response rating, Pigweed: 100
[7]; [14]
  Plant response rating, Morningglory: 90
[7]; [15]
  Morningglory plant response rating: 100
[7]; [16]
  Plant response rating, Morningglory: 0
[7]; [17]
  Plant response rating, Morningglory: 70
[8]; [14]
  Plant response rating, Foxtail, Giant: 80
[8]; [15]
  Foxtail, Giant plant response rating: 100
[8]; [16]
  Plant response rating, Foxtail, Giant: 40
[8]; [17]
  Plant response rating, Foxtail, Giant: 90
[9]
  Plant response rating, Flood, Ducksalad: 100
[9]; [18]
  Plant response rating, Ducksalad: 85
[9]; [19]
  Plant response rating, Ducksalad: 75
[9]; [20]
  Ducksalad plant response rating: 65
[10]
  Plant response rating, Flood, Sedge, Umbrella: 85
[10]; [18]
  Plant response rating, Sedge, Umbrella: 75
[10]; [19]
  Plant response rating, Sedge, Umbrella: 80
[10]; [20]
  Sedge, Umbrella plant response rating: 60
[11]
  Plant response rating, Flood, Barnyardgrass: 25
[11]; [18]
  Plant response rating, Barnyardgrass: 0
[11]; [19]
  Plant response rating, Barnyardgrass: 0
[11]; [20]
  Barnyardgrass plant response rating: 0
Rice (Oryza sativa)
  Plant response rating, Flood, Rice: 0
Rice (Oryza sativa); [18]
  Plant response rating, Rice: 0
Rice (Oryza sativa); [19]
  Plant response rating, Rice: 0
Rice (Oryza sativa); [20]
  Rice plant response rating: 0

## O=C1CCCC(O)=C1C(=O)c1cnc(-c2ccccc2)n(C2CCCC2)c1=O [Compound 131]
[1]; 16 g ai/ha, Postemergence, 0 to 100 scale
  Plant response rating, Barley: 0
[1]; 62 g ai/ha, postemergence, 0 is no effect, 100 is complete control, 13 to 15 days
  Barley plant response rating (0 to 100 scale): 0
[1]; [12]
  Plant response rating, Barley: 0
[1]; [13]
  Plant response rating, Barley: 0
[2]; [14]
  Plant response rating, Velvetleaf: 100
[2]; [21]
  Plant response rating, Velvetleaf: 100
[2]; [16]
  Plant response rating, Velvetleaf: 80
[2]; [22]
  Plant response rating, Velvetleaf: 100
[3]; [14]
  Plant response rating, Wheat: 0
[3]; [21]
  Plant response rating, Wheat: 0
[3]; [16]
  Plant response rating, Wheat: 0
[3]; [22]
  Plant response rating, Wheat: 0
[4]; [14]
  Plant response rating, Barnyardgrass: 90
[4]; [21]
  Plant response rating, Barnyardgrass: 90
[4]; [16]
  Plant response rating, Barnyardgrass: 50
[4]; [22]
  Plant response rating, Barnyardgrass: 100
Corn (Zea mays); [14]
  Plant response rating, Corn: 0
Corn (Zea mays); [21]
  Plant response rating, Corn: 30
Corn (Zea mays); [16]
  Plant response rating, Corn: 0
Corn (Zea mays); [22]
  Plant response rating, Corn: 0
[5]; [14]
  Plant response rating, Crabgrass, Large: 90
[5]; [21]
  Plant response rating, Crabgrass, Large: 90
[5]; [16]
  Plant response rating, Crabgrass, Large: 80
[5]; [22]
  Plant response rating, Crabgrass, Large: 100
[6]; [14]
  Plant response rating, Pigweed: 100
[6]; [21]
  Plant response rating, Pigweed: 100
[6]; [16]
  Plant response rating, Pigweed: 100
[6]; [22]
  Plant response rating, Pigweed: 100
[7]; [14]
  Plant response rating, Morningglory: 100
[7]; [21]
  Plant response rating, Morningglory: 100
[7]; [22]
  Plant response rating, Morningglory: 80
[8]; [14]
  Plant response rating, Foxtail, Giant: 80
[8]; [21]
  Plant response rating, Foxtail, Giant: 90
[8]; [16]
  Plant response rating, Foxtail, Giant: 60
[8]; [22]
  Plant response rating, Foxtail, Giant: 80
[9]
  Plant response rating, Flood, Ducksalad: 85
[9]; [18]
  Plant response rating, Ducksalad: 40
[10]
  Plant response rating, Flood, Sedge, Umbrella: 85
[10]; [18]
  Plant response rating, Sedge, Umbrella: 20
[11]
  Plant response rating, Flood, Barnyardgrass: 50
[11]; [18]
  Plant response rating, Barnyardgrass: 20
Rice (Oryza sativa)
  Plant response rating, Flood, Rice: 55
Rice (Oryza sativa); [18]
  Plant response rating, Rice: 25

## 5-[(2-hydroxy-6-oxo-1-cyclohexen-1-yl)carbonyl]-2,3-diphenyl-4(3H)-pyrimidinone [Compound 2]
[1]; Postemergence, 31 g ai/ha, scale 0 to 100 (0 no effect, 100 complete control)
  Plant response rating, Barley: 0
[1]; Postemergence, 62 g ai/ha, scale 0 (no effect) to 100 (complete control), 13 to 15 days
  Plant response rating, Barley: 0
[1]; Postemergence, 125 g ai/ha, scale 0 to 100 (0 no effect, 100 complete control), 13 to 15 days
  Plant response rating, Barley: 0
[1]; Postemergence, 250 g ai/ha, scale 0 to 100
  Barley plant response rating: 0
[2]; [23]
  Velvetleaf plant response rating: 100
[2]; [21]
  Plant response rating, Velvetleaf: 100
[2]; [16]
  Plant response rating, Velvetleaf: 60
[2]; [22]
  Plant response rating, Velvetleaf: 80
[3]; [23]
  Wheat plant response rating: 10
[3]; [21]
  Plant response rating, Wheat: 20
[3]; [16]
  Plant response rating, Wheat: 0
[3]; [22]
  Plant response rating, Wheat: 0
[4]; [23]
  Barnyardgrass plant response rating: 20
[4]; [21]
  Plant response rating, Barnyardgrass: 60
[4]; [16]
  Plant response rating, Barnyardgrass: 0
[4]; [22]
  Plant response rating, Barnyardgrass: 10
Corn (Zea mays); [23]
  Corn plant response rating: 0
Corn (Zea mays); [21]
  Plant response rating, Corn: 0
Corn (Zea mays); [16]
  Plant response rating, Corn: 0
Corn (Zea mays); [22]
  Plant response rating, Corn: 0
[5]; [23]
  Crabgrass, Large plant response rating: 50
[5]; [21]
  Plant response rating, Crabgrass, Large: 80
[5]; [16]
  Plant response rating, Crabgrass, Large: 10
[5]; [22]
  Plant response rating, Crabgrass, Large: 70
[6]; [23]
  Pigweed plant response rating: 70
[6]; [21]
  Plant response rating, Pigweed: 80
[6]; [16]
  Plant response rating, Pigweed: 20
[6]; [22]
  Plant response rating, Pigweed: 100
[7]; [23]
  Morningglory plant response rating: 70
[7]; [21]
  Plant response rating, Morningglory: 90
[7]; [22]
  Plant response rating, Morningglory: 50
[8]; [23]
  Foxtail, Giant plant response rating: 10
[8]; [21]
  Plant response rating, Foxtail, Giant: 40
[8]; [16]
  Plant response rating, Foxtail, Giant: 0
[8]; [22]
  Plant response rating, Foxtail, Giant: 10
[9]
  Plant response rating, Flood, Ducksalad: 0
[9]; [24]
  Plant response rating, Ducksalad: 0
[9]; [25]
  Plant response rating, Ducksalad: 0
[9]; [19]
  Plant response rating, Ducksalad: 0
[10]
  Plant response rating, Flood, Sedge, Umbrella: 0
[10]; [24]
  Plant response rating, Sedge, Umbrella: 0
[10]; [25]
  Plant response rating, Sedge, Umbrella: 0
[10]; [19]
  Plant response rating, Sedge, Umbrella: 0
[11]
  Plant response rating, Flood, Barnyardgrass: 0
[11]; [24]
  Plant response rating, Barnyardgrass: 0
[11]; [25]
  Plant response rating, Barnyardgrass: 0
[11]; [19]
  Plant response rating, Barnyardgrass: 0
Rice (Oryza sativa)
  Plant response rating, Flood, Rice: 0
Rice (Oryza sativa); [24]
  Plant response rating, Rice: 0
Rice (Oryza sativa); [25]
  Plant response rating, Rice: 0
Rice (Oryza sativa); [19]
  Plant response rating, Rice: 0
